# Test results taken from US9974305B2, “Fungicidal or bactericidal composition, and method for controlling diseases” (NISSAN CHEMICAL INDUSTRIES, LTD., priority 2014, dated 2018).
# Where two headings read alike, the source gives them in different places.
# Tests used:
# Type in all cases: in vivo
# [1] = system: rice sheath blight fungus (Rhizoctonia solani); assay: Efficacy test on rice sheath blight, spray treatment and prevention test (Test Examples 5-6); conditions: lesion height
# Description: An agent comprising the following compound listed in Table 2 (active ingredient A) and the compound listed in Table 6 (C17: active ingredient B) as active ingredients, was prepared in accordance with the above Formulation Example. The agent was diluted with water to a predetermined concentration to obtain a test solution. Then, in a plastic pot of 90 cm^3, rice (Nipponbare) was seeded by 5 grains in one place, and to the grown seedlings in 4 seedling phase, the test solution was applied by a spray gun in an amount of 5 ml per pot, for treatment.
# One day after the treatment, 1 g of mycelium flora of rice sheath blight fungus (Rhizoctonia solani) cultured in bran medium, was put by […] to a close-to-ground part of seedlings, and the pot was placed in a moist chamber set in temperature of 25° C. and humidity more than 95% RH for eight days. The height of the lesions which appeared in the highest position from the close-to-ground part (lesion height) was investigated, and the preventive value was calculated in accordance with the following formula. Preventive value=[1−(treated plot lesion height/untreated plot lesion height)]×100
# (§1) Further, from the preventive value for each agent concentration, synergy was calculated by using the Colby method (Colby S. R. 1976, Weeds 15, 20-22).
# Using the following compound listed in Table 2 (active ingredient A) and the compound listed in Table 6 (C17: active ingredient B) as active ingredients, a preventive test on rice sheath blight was conducted in accordance with the above Test Example 5.
# [2] = system: cucumber downy mildew (Pseudoperenospora cubensis); assay: Efficacy test on cucumber downy mildew, spray treatment and prevention test (Test Example 7); conditions: lesion area ratio
# Description: An agent comprising the following compound listed in Table 2 (active ingredient A) and the compound listed in Table 6 (C40: active ingredient B) as active ingredients, was prepared in accordance with the above Formulation Example. This agent was diluted with water to a predetermined concentration to obtain a test solution. Then, to seedlings of cucumber (variety: Sagami-hanjiro) at 1.5-leaf stage grown in a pot with a diameter of 7 cm, the test solution was applied by a spray gun in an amount of 10 ml per pot, for treatment. One day after the treatment, a spore suspension (2×100,000 cfu/ml) of cucumber downy mildew (Pseudoperenospora cubensis), was spray-inoculated, and the pot was placed in a moist chamber set in temperature of 20° C. and humidity more than 95% RH for 24 hours. After placing the pot in a glass greenhouse for 6 days, the ratio of the formed lesion area occupying the inoculated leaves was measured, and the preventive value was calculated in accordance with the following formula. Preventive value=[1−(treated plot lesion area ratio/untreated plot lesion area ratio)]×100
# as §1
# [3] = system: cucumber powdery mildew (Sphaerotheca cucurbitae); assay: Efficacy test on cucumber powdery mildew, irrigation treatment (Test Example 11); conditions: cucumber (Sagami-hanjiro)
# Description: An agent comprising the following compound listed in Table 2 (active ingredient A) and the compound listed in Table 6 (C18: active ingredient B), was prepared in accordance with the above Formulation Example. This agent was diluted with water to a predetermined concentration to obtain a test solution. 5 ml of the test solution was irrigated by a pipette to the close-to-ground part of cucumber seedlings at the 1 leaf stage (variety: Sagami-hanjiro), grown in a styrol cup with a diameter of 10 cm, and next day, the seedlings were transplanted to the to 4 cun pots. Then, after cultivation for 7 days in a glass greenhouse, to the first true leaf of the cucumber, a spore suspension (100,000 cfu/ml) of cucumber powdery mildew (Sphaerotheca cucurbitae) was inoculated by spraying. After 10 days in a glass greenhouse, the ratio of the formed lesion area occupying the inoculated leaves was measured, and the preventive value was calculated in accordance with the following formula. Preventive value=[1−(treated plot lesion area ratio/untreated plot lesion area ratio)]×100
# (§2) Further, from the preventive value at each agent concentration, synergy was calculated by using the Colby method (Colby S. R. 1976, Weeds 15, 20-22).
# [4] = system: cucumber gray mold fungus (Botrytis cinerea); assay: Preventive test against gray mold on cucumber cotyledon leaves, spray treatment, preventive value and Colby expected value (Test Examples 1-4); conditions: single compound; for pest or weed control at 20 ppm / pest or weed control at 10 ppm / pest or weed control at 50 ppm: Botrytis cinerea, 72 h; for pest or weed control at 20 ppm: 20 ppm spray; for pest or weed control at 50 ppm: 50 ppm spray
# Description: Using the following compound listed in Table 2 (the active ingredient A) and the compound listed in Table 5 through Table 15 (active ingredient B), an agent was prepared in accordance with the above Formulation Example. This agent was diluted with water to a predetermined concentration to obtain a test solution. Then, cucumber (variety: Sagami-hanjiro) was planted in a plastic pot of 90 cm^3, and in the cotyledon stage, 5 ml of the obtained test solution, was sprayed by a spray gun and air-dried. Thereafter, the treated leaf was cut off and placed in a plastic container which filled approximately 0.5 cm in depth water. A suspension of conidia of cucumber gray mold fungus (Botrytis cinerea) and a dissolved PDA culture medium were mixed at a ratio of 1:1 (mass ratio), and the mixture was dropped to inoculate the treated leaf with 30 μl. After the inoculation, the plastic container was sealed and left at 20° C. for 3 days, the ratio of the formed lesion occupying the inoculated leaf was measured, and the preventive value was calculated in accordance with the following calculation formula. Preventive value=[1−(treated plot lesion area ratio/untreated plot lesion area ratio)]×100
# Further, from the preventive value at each agent concentration, synergy was calculated by using the Colby method (Colby S. R. 1976, Weeds 15, 20-22). The calculation method is as follows. E=X+Y−XY/100
# X: preventive value of A agent at x concentration
# Y: preventive value of B agent at y concentration
# E: theoretical value expected by treatment of the mixture of A agent and B agent.
# The obtained result is analyzed to be synergy if the observed value is larger than the expected value, to be antagonism if the expected value is larger than the observed value, and to be an additive effect if the observed value and the expected value are the same.
# Using the following compound listed in Table 2 (active ingredient A) and the following compound listed in Table 5 through Table 15 (active ingredient B) as active ingredients, a preventive test against gray mold was conducted in accordance with the method described in Test Example 1.
# Using the following compound listed in Table 2 (active ingredient A) and the following compound listed in Table 5 or Table 6 (active ingredient B) as active ingredients, a preventive test against gray mold was conducted in accordance with the method described in Test Example 1.
# Using the following compound listed in Table 2 (active ingredient A) and the following compound listed in Table 6 through Table 16 (active ingredient B) as active ingredients, a preventive test against gray mold was conducted in accordance with the method described in Test Example 1.
# [5] = system: wheat glume blotch (Leptosphaeria nodorum); assay: Efficacy test on wheat glume blotch, spray treatment and prevention test (Test Example 8); conditions: for pest or weed control at 5 ppm: single compound 5 ppm
# Description: An agent comprising the following compound listed in Table 2 (active ingredient A) and the following compound listed in Table 6, Table 11 or Table 15 (active ingredient B) as active ingredients, was prepared in accordance with the above Formulation Example. This agent was diluted with water to a predetermined concentration to obtain a test solution. Then, to seedlings of wheat (variety: Haruyutaka) at the 1-leaf stage, seeded in a pot with a diameter of 7 cm, with 5 seeds per pot, and grown for 7 days, the test solution was applied by a spray gun in an amount of 5 ml per pot, for treatment. One day after the treatment, a spore suspension (1×100,000 cfu/ml) of wheat glume blotch (Leptosphaeria nodorum) was spray-inoculated, and the pot was placed in a moist chamber set in temperature of 20° C. and humidity more than 95% RH for 48 hours. After placing the pot in a glass greenhouse for 7 days, the ratio of the formed lesion area occupying the inoculated leaves was measured, and the preventive value was calculated in accordance with the following formula. Preventive value=[1−(treated plot lesion area ratio/untreated plot lesion area ratio)]×100
# as §1
# [6] = system: wheat glume blotch (Leptosphaeria nodorum); assay: Efficacy test on wheat glume blotch, seed treatment (Test Example 9); conditions: single compound
# Description: An agent comprising the following compound listed in Table 2 (active ingredient A) and the compound listed in Table 11 (H35: active ingredient B) as active ingredients, was prepared in accordance with the above Formulation Example. This agent was diluted with water to a predetermined concentration to obtain a test solution. A predetermined amount of the test solution was put in a glass bottle of 5 ml, and 0.5 g (approximately 15 grains) of wheat seeds (variety: Haruyutaka) were added, stirred and air-dried. In each pot with a diameter of 7 cm having soil put therein, 3 grains were seeded and grown for 14 days. To seedlings of the wheat (variety: Haruyutaka) grown to a 1-leaf stage, a spore suspension (100,000 cfu/ml) of wheat glume blotch (Leptosphaeria nodorum) was spray-inoculated, and the pot was placed in a moist chamber set in temperature of 20° C. and humidity more than 95% RH for 48 hours. After placing the pot for 7 days in a glass greenhouse, the ratio of the formed lesion area occupying the inoculated leaves was measured, and the preventive value was calculated in accordance with the following formula. Preventive value=[1−(treated plot lesion area ratio/untreated plot lesion area ratio)]×100
# as §2
# [7] = system: wheat powdery mildew (Blumeria graminis); assay: Efficacy test on wheat powdery mildew, seed treatment (Test Example 10); conditions: wheat (Norin 61)
# Description: An agent comprising the following compound listed in Table 2 (active ingredient A) and the compound listed in Table 11 (H35: active ingredient B) as active ingredients, was prepared in accordance with the above Formulation Example. This agent was diluted with water to a predetermined concentration to obtain a test solution. A predetermined amount of test solution was put in a glass bottle of 5 ml, and 0.5 g (approximately 15 grains) of wheat seeds (variety: Norin 61) were added, stirred and air-dried. In each pot with a diameter of 7 cm and having soil put therein, 3 grains were seeded and grown for 14 days. To the wheat seedlings grown to the 1-leaf stage, a spore suspension (100,000 cfu/ml) of wheat powdery mildew (Blumeria graminis) was spray-inoculated. After placing the pot in a glass greenhouse for 10 days, the ratio of the formed lesion area occupying the inoculated leaves was measured, and the preventive value was calculated in accordance with the following formula. Preventive value=[1−(treated plot lesion area ratio/untreated plot lesion area ratio)]×100
# as §2
# [8] = Parastagonospora nodorum, spray, lesion area ratio, read-out: Preventive value
# [9] = Test Example 4, 10 ppm spray, read-out: Preventive value
# [10] = Parastagonospora nodorum, single compound 50 ppm, spray, lesion area ratio, read-out: Preventive value
# [11] = Test Example 1, read-out: Preventive value
# [12] = Test Example 2, read-out: Preventive value
smiles,measurement,setting,value
CC(C)ON=C(CNC(=O)c1ccccc1C(F)(F)F)c1ncc(Cl)c(S(C)(=O)=O)c1Cl [compound 32],Preventive value,"[1]; Test Example 6, single compound 250 ppm",6
same,Preventive value,[2]; single compound 250 ppm,0
same,Preventive value,[3]; concentration 500 ppm,30
same,Preventive value,"[4]; Test Example 2, 1 ppm spray",94
same,Preventive value,"[4]; Test Example 3, 1 ppm spray",90
same,Preventive value,"[4]; Test Example 4, 1 ppm spray",80
same,Preventive value,"[5]; single compound 3 ppm, spray, lesion area ratio",60
same,Preventive value,"[5]; single compound 10 ppm, spray, lesion area ratio",85
"CC(C)(C)C(O)(CCc1ccc(Cl)cc1)Cn1cncn1 (stereo not drawn) [Compound No. H35, tebuconazole, reference compound]",Preventive value,[6]; processing amount 1 mg/1 g seed,60
same,Preventive value,[6]; processing amount 5 mg/1 g seed,75
same,Preventive value,[7]; processing amount 0.025 mg/1 g seed,80
same,Preventive value,[7]; processing amount 0.1 mg/1 g seed,95
same,pest or weed control at 20 ppm,[4]; Test Example 1,45%
same,pest or weed control at 20 ppm,[4]; Test Example 2,50%
same,pest or weed control at 5 ppm,[5]; [8],45%
"OC(Cc1ccccc1Cl)(Cn1nc[nH]c1=S)C1(Cl)CC1 (stereo not drawn) [Compound No. H31, prothioconazole, reference compound]",pest or weed control at 10 ppm,[4]; [9],50%
same,pest or weed control at 50 ppm,[5]; [10],30%
"COC(=O)N(OC)c1ccccc1COc1ccn(-c2ccc(Cl)cc2)n1 [C33, pyraclostrobin, reference compound]",pest or weed control at 10 ppm,[4]; [9],50%
same,pest or weed control at 1 ppm,"[5]; Parastagonospora nodorum, single compound 1 ppm, spray, lesion area ratio, read-out: Preventive value",65%
"COC(=O)NCc1cc(/C(C)=N/OCc2cccc(C)n2)ccc1Cl [C36, pyribencarb-methyl, reference compound]",Preventive value,"[4]; Test Example 4, 10 ppm spray",60
same,Preventive value,"[5]; single compound 25 ppm, spray, lesion area ratio",45
"CO/C=C(/C(=O)OC)c1ccccc1Oc1cc(Oc2ccccc2C#N)ncn1 [Compound No. C18, azoxystrobin, reference compound]",Preventive value,[3]; concentration 6.3 ppm,50
same,Preventive value,"[4]; Test Example 1, 3 ppm spray",30
same,Preventive value,"[4]; Test Example 2, 3 ppm spray",28
same,Preventive value,"[5]; single compound 1 ppm, spray, lesion area ratio",65
"N#Cc1c(Cl)c(Cl)c(Cl)c(C#N)c1Cl [L25, chlorothalonil]",pest or weed control at 50 ppm,[4]; [11],50%
same,pest or weed control at 50 ppm,[4]; [12],55%
same,pest or weed control at 50 ppm,[5]; [10],50%
"CCCN(CCOc1c(Cl)cc(Cl)cc1Cl)C(=O)n1ccnc1 [H29, prochloraz, reference compound]",pest or weed control at 10 ppm,"[4]; read-out: Preventive value, Test Example 4, 10 ppm spray",50%
same,pest or weed control at 50 ppm,"[5]; Parastagonospora nodorum, read-out: Preventive value",45%
"Cc1c(Br)c2ccc(F)cc2n1S(=O)(=O)c1ncn(S(=O)(=O)N(C)C)n1 [C40, amisulbrom]",Preventive value,[2]; single compound 0.5 ppm,75
same,Preventive value,"[4]; Test Example 1, 100 ppm spray",0
same,Preventive value,"[4]; Test Example 2, 100 ppm spray",0
"Cc1nc(C(F)(F)F)c(C(=O)Nc2c(Br)cc(OC(F)(F)F)cc2Br)s1 [Compound No. C17, thifluzamide, reference compound]",Preventive value,"[1]; Test Example 5, single compound 5 ppm",69
same,Preventive value,"[1]; Test Example 6, single compound 5 ppm",75
same,pest or weed control at 50 ppm,[4]; [11],20%
same,pest or weed control at 50 ppm,[4]; [12],25%
"CC1(C)CCC(Cc2ccc(Cl)cc2)C1(O)Cn1cncn1 (stereo not drawn) [H23, metconazole, reference compound]",pest or weed control at 10 ppm,[4]; [9],60%
same,pest or weed control at 5 ppm,[5]; [8],45%
"N#CC(CCc1ccc(Cl)cc1)(Cn1cncn1)c1ccccc1 (stereo not drawn) [H13, fenbuconazole]",pest or weed control at 50 ppm,[4]; [11],63%
same,pest or weed control at 50 ppm,[4]; [12],60%
same,pest or weed control at 25 ppm,"[5]; Parastagonospora nodorum, single compound 25 ppm, spray, lesion area ratio, read-out: Preventive value",50%
